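Test compounds were applied to cells in 96-well plates for 48 hours at 5 doses. Here, GI50 denotes the concentration required for 50% inhibition of growth. At the TGI there is no net growth.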
Assays:
Assay in all cases: NCI-60 cell line screen, 48 h
K-562 leukemia = test system: K-562 leukemia
ACHN renal = test system: ACHN renal
UACC-62 melanoma = test system: UACC-62 melanoma
A549 NSCLC = test system: A549 NSCLC
SK-OV-3 ovarian = test system: SK-OV-3 ovarian
CAKI-1 renal = test system: CAKI-1 renal
OVCAR-8 ovarian = test system: OVCAR-8 ovarian
NCI/ADR-RES ovarian = test system: NCI/ADR-RES ovarian
SW-620 colon = test system: SW-620 colon
SF-539 CNS = test system: SF-539 CNS
U251 CNS = test system: U251 CNS
RXF 393 renal = test system: RXF 393 renal
TK-10 renal = test system: TK-10 renal
HS 578T breast = test system: HS 578T breast
OVCAR-5 ovarian = test system: OVCAR-5 ovarian
786-0 renal = test system: 786-0 renal
SK-MEL-28 melanoma = test system: SK-MEL-28 melanoma
CCRF-CEM leukemia = test system: CCRF-CEM leukemia
MCF7 breast = test system: MCF7 breast
SK-MEL-5 melanoma = test system: SK-MEL-5 melanoma
NCI-H23 lung = test system: NCI-H23 lung
HT29 colon = test system: HT29 colon
HOP-62 NSCLC = test system: HOP-62 NSCLC
MDA-MB-468 breast = test system: MDA-MB-468 breast
T-47D breast = test system: T-47D breast
PC-3 prostate = test system: PC-3 prostate
NCI-H460 lung = test system: NCI-H460 lung
SNB-19 CNS = test system: SNB-19 CNS
SN12C renal = test system: SN12C renal
RPMI-8226 leukemia = test system: RPMI-8226 leukemia
M14 melanoma = test system: M14 melanoma
MDA-MB-435 = test system: MDA-MB-435
LOX IMVI melanoma = test system: LOX IMVI melanoma
MOLT-4 leukemia = test system: MOLT-4 leukemia
BT-549 breast = test system: BT-549 breast
HCC-2998 colon = test system: HCC-2998 colon
SNB-75 CNS = test system: SNB-75 CNS
COLO 205 colon = test system: COLO 205 colon
UACC-257 melanoma = test system: UACC-257 melanoma
A498 renal = test system: A498 renal
EKVX NSCLC = test system: EKVX NSCLC
SK-MEL-2 melanoma = test system: SK-MEL-2 melanoma
SF-295 CNS = test system: SF-295 CNS
NCI-H522 lung = test system: NCI-H522 lung
HL-60(TB) leukemia = test system: HL-60(TB) leukemia
MALME-3M melanoma = test system: MALME-3M melanoma
OVCAR-3 ovarian = test system: OVCAR-3 ovarian
MDA-MB-231 breast = test system: MDA-MB-231 breast
IGROV1 ovarian = test system: IGROV1 ovarian
HCT-116 colon = test system: HCT-116 colon
SF-268 CNS = test system: SF-268 CNS
DU-145 prostate = test system: DU-145 prostate
KM12 colon = test system: KM12 colon
OVCAR-4 ovarian = test system: OVCAR-4 ovarian
UO-31 renal = test system: UO-31 renal
NCI-H226 lung = test system: NCI-H226 lung
HOP-92 NSCLC = test system: HOP-92 NSCLC
HCT-15 colon = test system: HCT-15 colon

Molecule Cn1cc(NC(=O)c2cc(NC(=O)c3ccc(/C=C/c4ccccc4)cc3)cn2C)cc1C(=O)NCCCN1CCOCC1 has a GI50 (K-562 leukemia) of 4.79 µM, a TGI (K-562 leukemia) of 16.1 µM and a GI50 (ACHN renal) of 18.6 µM. For the same molecule, the TGI (ACHN renal) was > 28 µM, the GI50 (UACC-62 melanoma) was 21.2 µM and the TGI (UACC-62 melanoma) was > 28 µM. For the same molecule, the GI50 (A549 NSCLC) was > 28 µM, the TGI (A549 NSCLC) was > 28 µM and the GI50 (SK-OV-3 ovarian) was > 28 µM. For the same molecule, the TGI (SK-OV-3 ovarian) was > 28 µM, the GI50 (CAKI-1 renal) was 15.3 µM and the TGI (CAKI-1 renal) was > 28 µM. The GI50 (OVCAR-8 ovarian) was 7.21 µM, the TGI (OVCAR-8 ovarian) was > 28 µM and the GI50 (NCI/ADR-RES ovarian) was 7.31 µM. It also gave a TGI (NCI/ADR-RES ovarian) of 24.2 µM, a GI50 (SW-620 colon) of 6.89 µM and a TGI (SW-620 colon) of 18.7 µM. It also gave a GI50 (SF-539 CNS) of 5.8 µM, a TGI (SF-539 CNS) of 16.5 µM and a GI50 (U251 CNS) of 10.5 µM. For the same molecule, the TGI (U251 CNS) was > 28 µM, the GI50 (RXF 393 renal) was 2.08 µM and the TGI (RXF 393 renal) was 18 µM. For the same molecule, the GI50 (TK-10 renal) was 15.1 µM, the TGI (TK-10 renal) was > 28 µM and the GI50 (HS 578T breast) was 6.14 µM. The TGI (HS 578T breast) was > 28 µM, the GI50 (OVCAR-5 ovarian) was > 28 µM and the TGI (OVCAR-5 ovarian) was > 28 µM. For the same molecule, the GI50 (786-0 renal) was 8.59 µM, the TGI (786-0 renal) was > 28 µM and the GI50 (SK-MEL-28 melanoma) was > 28 µM. For the same molecule, the TGI (SK-MEL-28 melanoma) was > 28 µM, the GI50 (CCRF-CEM leukemia) was 5.74 µM and the TGI (CCRF-CEM leukemia) was > 28 µM. For the same molecule, the GI50 (MCF7 breast) was 3.57 µM, the TGI (MCF7 breast) was > 28 µM and the GI50 (SK-MEL-5 melanoma) was 14 µM. The TGI (SK-MEL-5 melanoma) was > 28 µM, the GI50 (NCI-H23 lung) was 13.4 µM and the TGI (NCI-H23 lung) was > 28 µM. The GI50 (HT29 colon) was 4.85 µM, the TGI (HT29 colon) was 19.6 µM and the GI50 (HOP-62 NSCLC) was 9.43 µM. For the same molecule, the TGI (HOP-62 NSCLC) was > 28 µM, the GI50 (MDA-MB-468 breast) was 5.88 µM and the TGI (MDA-MB-468 breast) was 18.5 µM. The GI50 (T-47D breast) was 5.59 µM, the TGI (T-47D breast) was > 28 µM and the GI50 (PC-3 prostate) was 13 µM. The TGI (PC-3 prostate) was > 28 µM, the GI50 (NCI-H460 lung) was 9.62 µM and the TGI (NCI-H460 lung) was > 28 µM. For the same molecule, the GI50 (SNB-19 CNS) was > 28 µM, the TGI (SNB-19 CNS) was > 28 µM and the GI50 (SN12C renal) was 5.28 µM. The TGI (SN12C renal) was > 28 µM, the GI50 (RPMI-8226 leukemia) was 3.35 µM and the TGI (RPMI-8226 leukemia) was > 28 µM. For the same molecule, the GI50 (M14 melanoma) was 14.7 µM, the TGI (M14 melanoma) was > 28 µM and the GI50 (MDA-MB-435) was 8.59 µM. For the same molecule, the TGI (MDA-MB-435) was > 28 µM, the GI50 (LOX IMVI melanoma) was 4.59 µM and the TGI (LOX IMVI melanoma) was 9.32 µM. For the same molecule, the GI50 (MOLT-4 leukemia) was 7.96 µM, the TGI (MOLT-4 leukemia) was > 28 µM and the GI50 (BT-549 breast) was 4.84 µM. The TGI (BT-549 breast) was 18.4 µM, the GI50 (HCC-2998 colon) was 16.6 µM and the TGI (HCC-2998 colon) was > 28 µM. The GI50 (SNB-75 CNS) was 4.42 µM, the TGI (SNB-75 CNS) was 26.3 µM and the GI50 (COLO 205 colon) was > 28 µM. For the same molecule, the TGI (COLO 205 colon) was > 28 µM, the GI50 (UACC-257 melanoma) was 19.2 µM and the TGI (UACC-257 melanoma) was > 28 µM. The GI50 (A498 renal) was > 28 µM, the TGI (A498 renal) was > 28 µM and the GI50 (EKVX NSCLC) was 16.6 µM. The TGI (EKVX NSCLC) was > 28 µM, the GI50 (SK-MEL-2 melanoma) was 4.94 µM and the TGI (SK-MEL-2 melanoma) was 16.3 µM. The GI50 (SF-295 CNS) was 17.8 µM, the TGI (SF-295 CNS) was > 28 µM and the GI50 (NCI-H522 lung) was 6.56 µM. For the same molecule, the TGI (NCI-H522 lung) was 25.2 µM, the GI50 (HL-60(TB) leukemia) was 7.49 µM and the TGI (HL-60(TB) leukemia) was > 28 µM. The GI50 (MALME-3M melanoma) was 13.8 µM, the TGI (MALME-3M melanoma) was > 28 µM and the GI50 (OVCAR-3 ovarian) was 6.82 µM. For the same molecule, the TGI (OVCAR-3 ovarian) was > 28 µM, the GI50 (MDA-MB-231 breast) was 9.18 µM and the TGI (MDA-MB-231 breast) was > 28 µM. The GI50 (IGROV1 ovarian) was > 28 µM, the TGI (IGROV1 ovarian) was > 28 µM and the GI50 (HCT-116 colon) was 7.39 µM. For the same molecule, the TGI (HCT-116 colon) was > 28 µM, the GI50 (SF-268 CNS) was 21.5 µM and the TGI (SF-268 CNS) was > 28 µM. The GI50 (DU-145 prostate) was 10.1 µM, the TGI (DU-145 prostate) was > 28 µM and the GI50 (KM12 colon) was 8.07 µM. The TGI (KM12 colon) was > 28 µM, the GI50 (OVCAR-4 ovarian) was > 28 µM and the TGI (OVCAR-4 ovarian) was > 28 µM. The GI50 (UO-31 renal) was 15.2 µM, the TGI (UO-31 renal) was > 28 µM and the GI50 (NCI-H226 lung) was 24.1 µM. The TGI (NCI-H226 lung) was > 28 µM, the GI50 (HOP-92 NSCLC) was 3.15 µM and the TGI (HOP-92 NSCLC) was 14.9 µM. For the same molecule, the GI50 (HCT-15 colon) was 7.41 µM and the TGI (HCT-15 colon) was > 28 µM.
